Source: patent publication US10633379B2, “Bromodomain inhibitors” (AbbVie Inc., priority 2016, dated 2020)

Tests used:
BRD4 (BDII_E352-M457) = BRD4 (BDII_E352-M457) (Homo sapiens (Human), UniProt O60885); experiment: TR-FRET bromodomain binding assay, BRD4 BDII; conditions: mean Ki, calculated from IC50, probe Kd and probe concentration
Outline: (§1)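 His-tagged BRD4 BDI (12 nM, with 100 nM Alexa647 BET-inhibitor probe) or BDII (4 nM, 30 nM probe), plus 1 nM Eu-anti-His antibody, in pH 6.0 phosphate buffer with 2% DMSO. Equilibrated 1 h at room temperature and read by TR-FRET. IC50 from a 4-parameter fit was converted to Ki using probe Kd and probe concentration.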

BRD4 (BDI_K57-E168) = BRD4 (BDI_K57-E168) (Homo sapiens (Human), UniProt O60885); experiment: TR-FRET bromodomain binding assay, BRD4 BDI; conditions: mean Ki, calculated from IC50, probe Kd and probe concentration
Outline: as §1

Structure (SMILES) | Ki (BRD4 (BDII_E352-M457)) [nM] | Ki (BRD4 (BDI_K57-E168)) [nM]
Cc1cc(F)cc(C)c1Oc1ccc(C(C)(C)O)cc1-c1cn(C)c(=O)c2[nH]c(C(=O)NC(C)(C)C(F)(F)F)cc12 [Example 55, 4-[2-(4-fluoro-2,6-dimethylphenoxy)-5-(2-hydroxypropan-2-yl)phenyl]-6-methyl-7-oxo-N-(1,1,1-trifluoro-2-methylpropan-2-yl)-6,7-dihydro-1H-pyrrolo[2,3-c]pyridine-2-carboxamide] | 6.9 | 4690
Cc1cc(F)cc(Cl)c1Oc1ccc(C(C)(C)O)cc1-c1cn(C)c(=O)c2[nH]c(C(=O)NC(C)(C)C(F)(F)F)cc12 [Example 57, 4-[2-(2-chloro-4-fluoro-6-methylphenoxy)-5-(2-hydroxypropan-2-yl)phenyl]-6-methyl-7-oxo-N-(1,1,1-trifluoro-2-methylpropan-2-yl)-6,7-dihydro-1H-pyrrolo[2,3-c]pyridine-2-carboxamide] | 17.5 | 2890
Cc1cc(F)cc(Cl)c1Oc1ncc(C(C)(C)O)cc1-c1cn(C)c(=O)c2[nH]c(C(=O)NC(C)(C)C(F)(F)F)cc12 [Example 58, 4-[2-(2-chloro-4-fluoro-6-methylphenoxy)-5-(2-hydroxypropan-2-yl)pyridin-3-yl]-6-methyl-7-oxo-N-(1,1,1-trifluoro-2-methylpropan-2-yl)-6,7-dihydro-1H-pyrrolo[2,3-c]pyridine-2-carboxamide] | 8.1 | 723
Cc1cc(F)cc(C)c1Oc1ccc(C(C)(C)O)cc1-c1cn(C)c(=O)c2[nH]c(C(=O)NC3(C)CC3(F)F)cc12 (stereo not drawn) [Example 60, N-(2,2-difluoro-1-methylcyclopropyl)-4-[2-(4-fluoro-2,6-dimethylphenoxy)-5-(2-hydroxypropan-2-yl)phenyl]-6-methyl-7-oxo-6,7-dihydro-1H-pyrrolo[2,3-c]pyridine-2-carboxamide] | 7.5 | 3510
Cc1cc(F)cc(C)c1Oc1ncc(C(C)(C)O)cc1-c1cn(C)c(=O)c2[nH]c(C(=O)NC3(C)CC3(F)F)cc12 (stereo not drawn) [Example 61, N-(2,2-difluoro-1-methylcyclopropyl)-4-[2-(4-fluoro-2,6-dimethylphenoxy)-5-(2-hydroxypropan-2-yl)pyridin-3-yl]-6-methyl-7-oxo-6,7-dihydro-1H-pyrrolo[2,3-c]pyridine-2-carboxamide] | 12 | 1580
Cc1cc(F)cc(Cl)c1Oc1ncc(C(C)(C)O)cc1-c1cn(C)c(=O)c2[nH]c(C(=O)NC3(C)CC3(F)F)cc12 (stereo not drawn) [Example 62, 4-[2-(2-chloro-4-fluoro-6-methylphenoxy)-5-(2-hydroxypropan-2-yl)pyridin-3-yl]-N-(2,2-difluoro-1-methylcyclopropyl)-6-methyl-7-oxo-6,7-dihydro-1H-pyrrolo[2,3-c]pyridine-2-carboxamide] | 10.2 | 1110

Stronger by Ki (BRD4 (BDII_E352-M457)), values ahead:

Ki (BRD4 (BDII_E352-M457)) [nM] | Ki (BRD4 (BDI_K57-E168)) [nM] | Structure (SMILES)
6 | 4520 | Cc1cccc(C(F)(F)F)c1Oc1ccc(C(C)(C)O)cc1-c1cn(C)c(=O)c2[nH]c(C(=O)NC(C)(C)C)cc12 [Example 54, N-tert-butyl-4-{5-(2-hydroxypropan-2-yl)-2-[2-methyl-6-(trifluoromethyl)phenoxy]phenyl}-6-methyl-7-oxo-6,7-dihydro-1H-pyrrolo[2,3-c]pyridine-2-carboxamide]
4.7 | 917 | Cc1cc(F)cc(C)c1Oc1ncc(C(C)(C)O)cc1-c1cn(C)c(=O)c2[nH]c(C(=O)NC(C)(C)C(F)(F)F)cc12 [Example 56, 4-[2-(4-fluoro-2,6-dimethylphenoxy)-5-(2-hydroxypropan-2-yl)pyridin-3-yl]-6-methyl-7-oxo-N-(1,1,1-trifluoro-2-methylpropan-2-yl)-6,7-dihydro-1H-pyrrolo[2,3-c]pyridine-2-carboxamide]
1.5 | 406 | Cc1cccc(Cl)c1Oc1ncc(C(C)(C)O)cc1-c1cn(C)c(=O)c2[nH]c(C(=O)NC34CC(C3)C4)cc12 [Example 63, N-(bicyclo[1.1.1]pentan-1-yl)-4-[2-(2-chloro-6-methylphenoxy)-5-(2-hydroxypropan-2-yl)pyridin-3-yl]-6-methyl-7-oxo-6,7-dihydro-1H-pyrrolo[2,3-c]pyridine-2-carboxamide]
